Source: US20060235076A1, “Medicinal composition for treating infection with drug-resistant staphylococcus aureus” (priority 2003, published 2006)
In brackets after ≈: the same amount, converted by molar mass. Read-outs that look alike come from different tables or passages of the source.

Test system: MRSA and MSSA
Assay: Antibacterial activity of gallic acid, various gallates and multivalent phenol derivatives alone (agar plate dilution method, MIC)
Format: cell-based, Staphylococcus aureus
Details: Staphylococcus aureus
Method: According to the agar plate dilution method defined by Japan Society of Chemotherapy, MIC (Minimum inhibitory concentration) was determined. CAMHA was prepared by adding 50 mg/l of Ca-ion, 25 mg/l of Mg-ion, and 2% of NaCl to Mueller-Hinton II Agar (MHA), and it was used as a medium for use in the measurement of sensitivity. The bacterial liquid was incubated at 37° C. overnight and diluted to 10^6 CFU/ml with saline.
MIC for gallic acid, various gallates and multivalent phenol derivatives alone with MRSA and MSSA were determined as described in experiment 2.

[1] = ATCC 6538 / MRSA / MSSA, ATCC6538, compound alone, read-out: MIC
[2] = COL, compound alone, read-out: MIC
[3] = MRSA #1, compound alone, read-out: MIC
[4] = MRSA #2, compound alone, read-out: MIC
[5] = MRSA #3, compound alone, read-out: MIC
[6] = MRSA #4, compound alone, read-out: MIC
[7] = MRSA #5, compound alone, read-out: MIC
[8] = MRSA #6, compound alone, read-out: MIC
[9] = MRSA #7, compound alone, read-out: MIC
[10] = MRSA #8, compound alone, read-out: MIC
[11] = MRSA #9, compound alone, read-out: MIC
[12] = MRSA #10, compound alone, read-out: MIC
[13] = MRSA #12, compound alone, read-out: MIC
[14] = MRSA #16, compound alone, read-out: MIC
[15] = MRSA #17, compound alone, read-out: MIC
[16] = MRSA #18, compound alone, read-out: MIC
[17] = MRSA #20, compound alone, read-out: MIC
[18] = MRSA #21, compound alone, read-out: MIC
[19] = MRSA #22, compound alone, read-out: MIC
[20] = MRSA #24, compound alone, read-out: MIC
[21] = MSSA #1003, compound alone, read-out: MIC
[22] = MSSA #1010, compound alone, read-out: MIC
[23] = MSSA #1020, compound alone, read-out: MIC
[24] = MSSA #1023, compound alone, read-out: MIC
[25] = MSSA #1029, compound alone, read-out: MIC
[26] = MSSA #1032, compound alone, read-out: MIC
[27] = over all strains of Table 3-2, compound alone, read-out: MIC50

CCCCCCCCCCCCCCCCOC(=O)c1cc(O)c(O)c(O)c1 [Cetyl gallate]
MIC [1]: > 250 µg/mL | MIC [2]: 250 µg/mL (≈ 634 µM) | MIC [3]: > 250 µg/mL | MIC [4]: 250 µg/mL (≈ 634 µM) | MIC [5]: > 250 µg/mL | MIC [6]: > 250 µg/mL | MIC [7]: > 250 µg/mL | MIC [8]: 125 µg/mL (≈ 317 µM) | MIC [9]: > 250 µg/mL | MIC [10]: > 250 µg/mL | MIC [11]: > 250 µg/mL | MIC [12]: 125 µg/mL (≈ 317 µM) | MIC [13]: > 250 µg/mL | MIC [14]: > 250 µg/mL | MIC [15]: > 250 µg/mL | MIC [16]: > 250 µg/mL | MIC [17]: > 250 µg/mL | MIC [18]: > 250 µg/mL | MIC [19]: > 250 µg/mL | MIC [20]: > 250 µg/mL | MIC [21]: > 250 µg/mL | MIC [22]: > 250 µg/mL | MIC [23]: > 250 µg/mL | MIC [24]: > 250 µg/mL | MIC [25]: 250 µg/mL (≈ 634 µM) | MIC [26]: 250 µg/mL (≈ 634 µM) | MIC50 [27]: > 250 µg/mL

O=C(O)c1cc(O)c(O)c(O)c1 [Gallic acid, gallic acid, reference compound]
MIC (ATCC 6538 / MRSA / MSSA, ATCC6538, read-out: MIC alone): 62.5 µg/mL (≈ 367 µM) | MIC (COL, read-out: MIC alone): 62.5 µg/mL (≈ 367 µM) | MIC (MRSA #1, read-out: MIC alone): 31.3 µg/mL (≈ 184 µM) | MIC (MRSA #2, read-out: MIC alone): 62.5 µg/mL (≈ 367 µM) | MIC (MRSA #3, read-out: MIC alone): 31.3 µg/mL (≈ 184 µM) | MIC (MRSA #4, read-out: MIC alone): 62.5 µg/mL (≈ 367 µM) | MIC (MRSA #5, read-out: MIC alone): 31.3 µg/mL (≈ 184 µM) | MIC (MRSA #6, read-out: MIC alone): 31.3 µg/mL (≈ 184 µM) | MIC (MRSA #7, read-out: MIC alone): 62.5 µg/mL (≈ 367 µM) | MIC (MRSA #8, read-out: MIC alone): 31.3 µg/mL (≈ 184 µM) | MIC (MRSA #9, read-out: MIC alone): 31.3 µg/mL (≈ 184 µM) | MIC (MRSA #10, read-out: MIC alone): 31.3 µg/mL (≈ 184 µM) | MIC (MRSA #12, read-out: MIC alone): 62.5 µg/mL (≈ 367 µM) | MIC (MRSA #16, read-out: MIC alone): 31.3 µg/mL (≈ 184 µM) | MIC (MRSA #17, read-out: MIC alone): 62.5 µg/mL (≈ 367 µM) | MIC (MRSA #18, read-out: MIC alone): 62.5 µg/mL (≈ 367 µM) | MIC (MRSA #20, read-out: MIC alone): 62.5 µg/mL (≈ 367 µM) | MIC (MRSA #21, read-out: MIC alone): 62.5 µg/mL (≈ 367 µM) | MIC (MRSA #22, read-out: MIC alone): 62.5 µg/mL (≈ 367 µM) | MIC (MRSA #24, read-out: MIC alone): 62.5 µg/mL (≈ 367 µM) | MIC (MSSA #1003, read-out: MIC alone): 62.5 µg/mL (≈ 367 µM) | MIC (MSSA #1010, read-out: MIC alone): 62.5 µg/mL (≈ 367 µM) | MIC (MSSA #1020, read-out: MIC alone): 62.5 µg/mL (≈ 367 µM) | MIC (MSSA #1023, read-out: MIC alone): 31.3 µg/mL (≈ 184 µM) | MIC (MSSA #1029, read-out: MIC alone): 31.3 µg/mL (≈ 184 µM) | MIC (MSSA #1032, read-out: MIC alone): 31.3 µg/mL (≈ 184 µM) | MIC50 (compound alone, over all strains of Table 3-1, read-out: MIC50): 62.5 µg/mL (≈ 367 µM)

CCCC(=O)c1cc(O)c(O)cc1O [2′,4′,5′-trihydroxybutyrophenone]
MIC50: 125 µg/mL (≈ 637 µM) | MIC (ATCC 6538 / MRSA / MSSA): 125 µg/mL (≈ 637 µM) | MIC [2]: 125 µg/mL (≈ 637 µM) | MIC [3]: 62.5 µg/mL (≈ 319 µM) | MIC [4]: 125 µg/mL (≈ 637 µM) | MIC [5]: 62.5 µg/mL (≈ 319 µM) | MIC [6]: 125 µg/mL (≈ 637 µM) | MIC [7]: 62.5 µg/mL (≈ 319 µM) | MIC [8]: 62.5 µg/mL (≈ 319 µM) | MIC [9]: 62.5 µg/mL (≈ 319 µM) | MIC [10]: 125 µg/mL (≈ 637 µM) | MIC [11]: 62.5 µg/mL (≈ 319 µM) | MIC [12]: 62.5 µg/mL (≈ 319 µM) | MIC [13]: 125 µg/mL (≈ 637 µM) | MIC [14]: 62.5 µg/mL (≈ 319 µM) | MIC [15]: 125 µg/mL (≈ 637 µM) | MIC [16]: 125 µg/mL (≈ 637 µM) | MIC [17]: 125 µg/mL (≈ 637 µM) | MIC [18]: 125 µg/mL (≈ 637 µM) | MIC [19]: 125 µg/mL (≈ 637 µM) | MIC [20]: 125 µg/mL (≈ 637 µM) | MIC [21]: 125 µg/mL (≈ 637 µM) | MIC [22]: 125 µg/mL (≈ 637 µM) | MIC [23]: 125 µg/mL (≈ 637 µM) | MIC [24]: 62.5 µg/mL (≈ 319 µM) | MIC [25]: 62.5 µg/mL (≈ 319 µM) | MIC [26]: 62.5 µg/mL (≈ 319 µM)

CC(=O)c1ccc(O)c(O)c1O [2′,3′,4′-trihydroxyacetophenone]
MIC [1]: 62.5 µg/mL (≈ 372 µM) | MIC [2]: 62.5 µg/mL (≈ 372 µM) | MIC [3]: 62.5 µg/mL (≈ 372 µM) | MIC [4]: 62.5 µg/mL (≈ 372 µM) | MIC [5]: 62.5 µg/mL (≈ 372 µM) | MIC [6]: 62.5 µg/mL (≈ 372 µM) | MIC [7]: 62.5 µg/mL (≈ 372 µM) | MIC [8]: 31.3 µg/mL (≈ 186 µM) | MIC [9]: 62.5 µg/mL (≈ 372 µM) | MIC [10]: 62.5 µg/mL (≈ 372 µM) | MIC [11]: 62.5 µg/mL (≈ 372 µM) | MIC [12]: 31.3 µg/mL (≈ 186 µM) | MIC [13]: 62.5 µg/mL (≈ 372 µM) | MIC [14]: 62.5 µg/mL (≈ 372 µM) | MIC [15]: 62.5 µg/mL (≈ 372 µM) | MIC [16]: 62.5 µg/mL (≈ 372 µM) | MIC [17]: 62.5 µg/mL (≈ 372 µM) | MIC [18]: 62.5 µg/mL (≈ 372 µM) | MIC [19]: 62.5 µg/mL (≈ 372 µM) | MIC [20]: 62.5 µg/mL (≈ 372 µM) | MIC [21]: 62.5 µg/mL (≈ 372 µM) | MIC [22]: 62.5 µg/mL (≈ 372 µM) | MIC [23]: 62.5 µg/mL (≈ 372 µM) | MIC [24]: 31.3 µg/mL (≈ 186 µM) | MIC [25]: 31.3 µg/mL (≈ 186 µM) | MIC [26]: 62.5 µg/mL (≈ 372 µM) | MIC50 [27]: 62.5 µg/mL (≈ 372 µM)
